# From paper PMC3577726 (PLoS ONE, 2013)
# No end group written: not given here.
# How the values were obtained:
# Male C57BL/6J mice [1] = test: Serum insulin concentration after intraperitoneal or oral treatment, with or without sitagliptin and exendin(9–39); type: in vivo, mouse; settings: for Serum insulin concentration, i.p. 7 µg/kg alone / Serum insulin concentration, oral 10 µg/kg: blood 20 min later; for Serum insulin concentration, i.p. 7 µg/kg alone: four to six mice; for Serum insulin concentration, oral 10 µg/kg: 10 µg/kg orally, with or without sitagliptin and exendin(9–39)
# Method: (§1) Male C57BL/6J mice (Jackson Laboratory, Bar Harbor, ME) were maintained in a specific pathogen-free facility under a 12 h-light, 12 h-dark cycle and were moved to a conventional facility for experiments at 6 to 8 weeks of age. All animal experiments were approved by the animal ethics committee of Kyushu University. Animals were anesthetized with sevoflurane and blood (maximally up to 100 µl) was collected from the orbital plexus of mice treated as indicated. Dipeptidyl peptidase (DPP)-IV inhibitor (Merck-Millipore, Billerica, MA) was added to the samples to a final concentration of 100 µM.
# (B, C) Mice deprived of food for 5 h (blood glucose level, 103.5 mg/dl) were administered sitagliptin (1 µg/kg) or saline orally and then 30 min later were treated with ucOC or GlaOC intraperitoneally (7 µg/kg) (B) or orally (10 µg/kg) (C) in combination with intraperitoneal injection of exendin(9–39) (25 nmol/kg) or saline. […] All data are means ± SEM for four to six mice. *P < 0.05, **P < 0.01, †P = 0.06 versus control (open bar) or for the indicated comparisons (Student's t test).
# STC-1 cells = test: GLP-1 secretion from STC-1 cells (ELISA of culture supernatant); type: cell-based, mouse
# Method: STC-1 cells (kindly provided from Dr. G. Tsujimoto, Kyoto University), a mouse enteroendocrine cell line were cultured under a humidified atmosphere of 5% CO2 at 37 °C in Dulbecco's modified Eagle's medium supplemented with 15% horse serum, 5% fetal bovine serum, penicillin (100 U/ml), and streptomycin (0.1 mg/ml). The cells were routinely passaged at 80 to 90% confluence.
# STC-1 cells in a six-well plate were washed three times and then incubated with recombinant mouse ucOC or with GlaOC (ANA Spec, Fremont, CA) in Hanks' balanced salt solution for 60 min at 37 °C. The culture supernatants were then assayed for GLP-1 with ELISA kit (Shibayagi, Gunma, Japan).
# Figure 2 OC-induced GLP-1 secretion in STC-1 cells. STC-1 cells were incubated for 60 min with vehicle (control) or the indicated concentrations of ucOC, GlaOC, or PMA. Data are expressed relative to the control value (33.1 pg per 1 × 10^5 cells) and are means ± SEM from four to eight independent experiments. *P < 0.05, **P < 0.01 versus control (Student's t test).
# Male C57BL/6J mice [2] = test: Serum GLP-1 concentration after intraperitoneal administration of OC; type: in vivo, mouse
# Method: (§2) Figure 3 Effect of intraperitoneal or oral administration of OC on serum GLP-1 concentration. (A) Mice were deprived of food for 5 h and then injected intraperitoneally with saline (control) or the indicated doses of recombinant ucOC, of GlaOC. Blood was collected 20 min later for determination of the serum concentration of GLP-1. Part of mice was orally administered with sitagliptin (1 µg/kg) 30 min before injection of OC. (B) Mice deprived of food for 5 h were treated orally with saline (control) or the indicated doses of ucOC or GlaOC. Blood samples collected 20 min later were assayed for serum GLP-1 concentration. All data are means ± SEM for five to seven mice. *P < 0.05, **P < 0.01 versus control (Student's t test).
# Male C57BL/6J mice [3] = test: Serum GLP-1 concentration after oral administration of OC; type: in vivo, mouse; settings: mice fasted 5 h, no sitagliptin pretreatment, blood 20 min later, five to seven mice
# Method: as §2
# Male C57BL/6J mice [4] = system: Male C57BL/6J mice
# Method: as §1
# [5] = mouse, in vivo
# Method: Serum OC concentrations were measured with ELISA kit for mouse OC (Biomedical Technologies), which is formulated for both ucOC and GlaOC, with the two forms being discriminated with the use of hydroxyapatite. Serum (50 µl) was thus mixed with 10 mg of hydroxyapatite (Sigma-Aldrich) and rotated at 4 °C for 1 h, after which the hydroxyapatite (and bound GlaOC) was removed by centrifugation and the supernatant was assayed for ucOC.
# Figure 5 Serum levels of total OC and ucOC after intraperitoneal or oral administration of ucOC or GlaOC. Serum levels of total OC (A) or ucOC (B) were measured 20 min after administration of ucOC or GlaOC at a dose of 7 µg/kg intraperitoneally (i.p.) or 10 µg/kg orally (p.o.) in mice that had been deprived of food for 5 h; black circles indicate values for individual mice, with the horizontal bars representing the mean values. *P < 0.05 versus saline-treated animals [one-way ANOVA followed by either Dunnett's multiple-comparison test (A) or Tukey's HSD post hoc test (B)].
# [6] = Absorption of 125I-labeled ucOC into the systemic circulation (blood radioactivity); type: in vivo, mouse; settings: n = 5 each
# Method: An expression vector for a glutathione S-transferase-ucOC fusion protein was constructed by introduction of mouse OC cDNA into the vector pGEX-4T-1 (GE Healthcare, Buckinghamshire, UK). The fusion protein was produced in bacteria and purified with glutathione-Sepharose beads (GE Healthcare) according to standard procedures. The final washes of the beads were performed with a buffer containing 0.1% Triton X-114 (Sigma-Aldrich, St. Louis, MO) and then with the same buffer without detergent in order to remove endotoxin [17]. […] The purity of the ucOC preparation was assessed by sodium dodecyl sulfate-polyacrylamide gel electrophoresis with Tris-Tricine and staining with Coomassie blue, and the concentration and integrity of the protein were determined with an enzyme-linked immunosorbent assay (ELISA) kit for mouse OC (Biomedical Technologies, Stoughton, MA). […]
# Figure 6 Absorption of ^125I-labeled ucOC into the systemic circulation. Mice were administered ^125I-labeled ucOC (5 µg/kg, 4,000 to 6,000 cpm) intraperitoneally (circles, n = 5) or orally (squares, n = 5), and blood was collected into tubes containing 5 mM EDTA (to prevent coagulation) at 30 and 60 min thereafter for measurement of radioactivity. The percentage of the administered radioactivity present in the circulation was calculated assuming a total blood volume of 2 ml. […]
# [7] = cited from earlier work
molecule,measurement,setting,value
"N[C@@H](CC(=O)N1CCn2c(nnc2C(F)(F)F)C1)Cc1cc(F)c(F)cc1F [Sitagliptin, sitagliptin, reference compound]","Serum insulin concentration, sitagliptin alone","Male C57BL/6J mice [1]; mice fasted 5 h, sitagliptin 1 µg/kg orally",small increase in the serum insulin concentration
"GlaOC: γ-carboxylated form of the bone-derived protein osteocalcin (ANA Spec) (YLGASVPSPDPLEPTREQCELNPACDELSDQYGLKTAYKRIYGITI; ends and bridges not checked; also: γ-carboxylated on three glutamic acid residues (places not given here); UniProt P86546 50-95, looked up)",Effect on GLP-1 secretion at the concentrations examined,STC-1 cells; 60 min,did not affect GLP-1 secretion
same,"Serum GLP-1 level, i.p., sitagliptin-pretreated mice","Male C57BL/6J mice [2]; mice fasted 5 h, oral sitagliptin 1 µg/kg 30 min before, i.p., blood 20 min later",did not increase the serum GLP-1 level
same,Serum GLP-1 concentration after oral administration,Male C57BL/6J mice [3],a similar effect was apparent
same,"Serum insulin concentration, i.p. 7 µg/kg alone","Male C57BL/6J mice [1]; mice fasted 5 h, 7 µg/kg i.p.",no effect on serum insulin
same,"Serum insulin concentration, oral 10 µg/kg",Male C57BL/6J mice [1]; mice fasted 5 h,"tended to increase serum insulin, although this effect did not achieve statistical significance"
same,Serum GLP-1 level after tail vein injection of GlaOC,"Male C57BL/6J mice [4]; fasted mice, data not shown",no effect
same,Serum insulin level after tail vein injection of GlaOC,"Male C57BL/6J mice [4]; fasted mice, data not shown",no effect
"Osteocalcin (YLGASVPSPDPLEPTREQCELNPACDELSDQYGLKTAYKRIYGITI; ends and bridges not checked; cysteine pairing not given here; UniProt P86546 50-95, looked up) [osteocalcin, a peptide composed of 46 amino acids; form (uc- or Gla-) not specified at the place]",Absorption rate at fivefold higher oral dose,[5],0.8%
same,Absorption rate at twofold higher oral dose,[5],2%
"^125I-labeled ucOC: ucOC iodinated with Na^125I as GST fusion, released with thrombin (YLGASVPSPDPLEPTREQCELNPACDELSDQYGLKTAYKRIYGITI; ends and bridges not checked; also: 125I label, site not given here; UniProt P86546 50-95, looked up)","Gross absorption, % of the administered radioactivity in the circulation at 30 min","[6]; 5 µg/kg (4,000 to 6,000 cpm) i.p. or orally, assuming total blood volume of 2 ml",2 to 8%
same,Blood radioactivity at 60 min compared with 30 min,[6]; 5 µg/kg i.p. or orally,increased further or decreased to a small extent
calcitonin,Rate of absorption from the intestine into the bloodstream,[7],~5%
exendin(9–39) [reference compound],Antagonism of the exendin-4-induced increase in serum insulin,Male C57BL/6J mice [1]; exendin(9–39) 25 nmol/kg i.p. 30 min before exendin-4 25 nmol/kg i.p.,sensitive to prior injection of exendin(9–39)
same,Effect of exendin(9–39) on the sitagliptin-induced increase in serum insulin,"Male C57BL/6J mice [1]; sitagliptin orally, exendin(9–39) i.p., data not shown",blocked by administration of exendin(9–39)
"uncarboxylated osteocalcin (YLGASVPSPDPLEPTREQCELNPACDELSDQYGLKTAYKRIYGITI; ends and bridges not checked; cysteine pairing not given here; UniProt P86546 50-95, looked up) [ucOC]",Effect on GLP-1 secretion at 30 ng/ml,"STC-1 cells; 60 min, 30 ng/ml",no longer apparent
same,Effect on GLP-1 secretion at concentrations of >10 ng/ml,STC-1 cells; >10 ng/ml,markedly diminished
same,"Serum GLP-1 concentration, i.p., without sitagliptin","Male C57BL/6J mice [2]; mice fasted 5 h, blood 20 min after i.p. injection, no DPP-IV inhibitor pretreatment, five to seven mice","increase in the serum concentration of GLP-1, but with only statistically insignificance"
same,"Serum GLP-1 concentration, i.p. 7 µg/kg, sitagliptin-pretreated","Male C57BL/6J mice [2]; mice fasted 5 h, oral sitagliptin 1 µg/kg 30 min before, 7 µg/kg i.p., blood 20 min later",significant increase
same,"Serum GLP-1 concentration, i.p. 10 µg/kg, sitagliptin-pretreated","Male C57BL/6J mice [2]; mice fasted 5 h, oral sitagliptin 1 µg/kg 30 min before, 10 µg/kg i.p., blood 20 min later",no such effect
same,Effect on GLP-1 secretion at intraperitoneal doses of >7 µg/kg,"Male C57BL/6J mice [2]; mice, i.p. >7 µg/kg",markedly diminished
same,Serum GLP-1 concentration after oral administration,Male C57BL/6J mice [3],increased the serum concentration of GLP-1 in a dose-dependent manner
same,"Serum insulin concentration, i.p. 7 µg/kg alone","Male C57BL/6J mice [1]; mice fasted 5 h, 7 µg/kg i.p.",significant increase
same,"Serum insulin concentration, oral 10 µg/kg",Male C57BL/6J mice [1]; mice fasted 5 h,Essentially identical results
same,"Serum insulin increase, i.p. 7 µg/kg with sitagliptin pretreatment",Male C57BL/6J mice [1]; oral sitagliptin 1 µg/kg 30 min before 7 µg/kg i.p.,enhanced by sitagliptin
same,"Serum insulin increase, i.p. 7 µg/kg with sitagliptin and exendin(9–39)","Male C57BL/6J mice [1]; oral sitagliptin 1 µg/kg, 7 µg/kg i.p., exendin(9–39) 25 nmol/kg i.p.",abolished by exendin(9–39)
same,Serum concentration of GLP-1 at 30 min after i.v. injection,"Male C57BL/6J mice [4]; 30 ng per animal, tail vein, mice fasted 5 h",further increased
same,Serum concentration of insulin after i.v. injection,"Male C57BL/6J mice [4]; 30 ng per animal, tail vein, mice fasted 5 h, 15 and 30 min",increased as well
same,Serum concentration of GLP-1 at 15 min after i.v. injection,"Male C57BL/6J mice [4]; 30 ng per animal, tail vein, mice fasted 5 h, four to six mice",significantly increased
same,Serum insulin concentration after i.v. 300 ng,"Male C57BL/6J mice [4]; 300 ng per animal i.v., fasted mice, data not shown",no effect on the serum insulin concentration
same,Blood concentration after i.v. 300 ng,"Male C57BL/6J mice [4]; mouse, in vivo, iv",28 nM
same,Expected initial serum concentration after i.v. 30 ng,"Male C57BL/6J mice [4]; mouse, in vivo, iv",~30 ng/mL
same,Initial concentration in blood after i.v. 30 ng,"Male C57BL/6J mice [4]; mouse, in vivo, iv",2.7 nM
